Results reported in publication PMC3894639 (Pharmacogenetics and genomics, 2013).
Where a chain is given by its changes, count along the chain named. Where a name gives a salt, the structure may show the parent alone. Read-outs that look alike come from different tables or passages of the source.

Experiments:
OATP1B1 [1] = target: T1, OATP1B1 (Homo sapiens, UniProt Q9Y6L6); experiment: Prediction of clinical drug-drug interactions; details: for R (CER): cerivastatin as substrate; for Iin,max: Fa 1, Ka 0.1/min, Qh 1500 ml/min
T1 sequence (Q9Y6L6 1-691): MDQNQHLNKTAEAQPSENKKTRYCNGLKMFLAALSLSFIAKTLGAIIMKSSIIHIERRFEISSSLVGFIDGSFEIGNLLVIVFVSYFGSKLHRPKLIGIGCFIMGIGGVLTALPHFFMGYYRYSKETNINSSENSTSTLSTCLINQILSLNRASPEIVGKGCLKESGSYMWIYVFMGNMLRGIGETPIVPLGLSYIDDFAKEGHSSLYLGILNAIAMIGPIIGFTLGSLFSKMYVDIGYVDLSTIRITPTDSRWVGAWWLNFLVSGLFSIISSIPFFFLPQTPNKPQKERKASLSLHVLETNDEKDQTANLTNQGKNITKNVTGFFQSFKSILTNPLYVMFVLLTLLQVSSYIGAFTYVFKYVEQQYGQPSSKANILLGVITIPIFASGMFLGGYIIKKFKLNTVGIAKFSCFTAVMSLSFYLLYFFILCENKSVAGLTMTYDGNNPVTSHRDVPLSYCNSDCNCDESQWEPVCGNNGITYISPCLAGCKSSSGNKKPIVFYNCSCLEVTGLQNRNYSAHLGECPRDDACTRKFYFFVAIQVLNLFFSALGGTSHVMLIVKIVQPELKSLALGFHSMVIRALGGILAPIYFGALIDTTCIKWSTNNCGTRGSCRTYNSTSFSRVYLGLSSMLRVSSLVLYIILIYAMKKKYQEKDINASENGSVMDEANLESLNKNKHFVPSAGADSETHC

[2] = protein unbound fraction; ref literature; cited from earlier work
[3] = cited from earlier work
OATP1B1 [4] = target: T1, OATP1B1
OATP1B1 [5] = target: T1, OATP1B1; remark: listed apart in the source
[6] = tested on: cerivastatin-induced rhabdomyolysis; details: cited from earlier work
[7] = tested on: HEK293/FRT cells, empty vector; experiment: Uptake by HEK293/FRT cells with empty vector; format: cell-based, human
OATP1B1 reference = target: T2, OATP1B1 reference (Homo sapiens, UniProt Q9Y6L6); details: 20 nmol/l [3H]-ES, 5 min, 37°C
T2 sequence (Q9Y6L6 1-691): T1 sequence (Q9Y6L6 1-691)

OATP1B1*15 = target: T3, OATP1B1*15 (Homo sapiens, UniProt Q9Y6L6, N130D/V174A); details: 20 nmol/l [3H]-ES
T3 sequence (Q9Y6L6 1-691 N130D/V174A): T1 sequence (Q9Y6L6 1-691) with N130D, V174A

OATP1B1 T345M = target: T4, OATP1B1 T345M (Homo sapiens, UniProt Q9Y6L6, T345M); details: 20 nmol/l [3H]-ES
T4 sequence (Q9Y6L6 1-691 T345M): T1 sequence (Q9Y6L6 1-691) with T345M

OATP1B1 FS (974insGT) = details: 5 nmol/l [3H]-CER; frameshift insertion
SLCO1B1 521T>C = SLCO1B1 521T>C polymorphism; cited from earlier work
[8] = 5 nmol/l [3H]-CER, concentrations up to 100 µmol/l
[9] = 20 nmol/l [3H]-ES, concentrations up to 100 µmol/l
[10] = concentrations up to 3 µmol/l, limited by solubility
[11] = R=1+fu×Iin,max/IC50, ES as substrate, oral dose listed per drug in Table 3
[12] = at the oral dose listed per drug in Table 3 (clopidogrel 75 mg)

Compound	IC50 (OATP1B1 [4])	Inhibition of OATP1B1-mediated uptake of cerivastatin (in words) (OATP1B1 [4]; [8])	IC50 (OATP1B1 [5])	Inhibition of OATP1B1-mediated uptake of ES (in words) (OATP1B1 [5]; [9])	further results
COC(=O)[C@H](c1ccccc1Cl)N1CCC2SC(=O)C=C2C1 (some centres unmarked) [2-Oxo clopidogrel, 2-oxo clopidogrel]	8.18 µM	inhibited	8.97 µM	inhibited	R (ES) (OATP1B1 [1]; ES as substrate, clopidogrel oral dose 600 mg): 1.26; R (CER) (OATP1B1 [1]; clopidogrel oral dose 600 mg): 1.29; Iin,max (OATP1B1 [1]; clopidogrel oral dose 600 mg): 118.69 µmol/L; fu [2]: 0.02; Cmax ([3]; clopidogrel oral dose 600 mg): 0.05 ng/mL
CCOC(=O)C1=C(COCCN)NC(C)=C(C(=O)OC)C1c1ccccc1Cl (centres unmarked) [Amlodipine, amlodipine]	35.5 µM	–	39.6 µM	–	–
Cc1ccc(-c2cc(C(F)(F)F)nn2-c2ccc(S(N)(=O)=O)cc2)cc1 [Celecoxib, celecoxib]	–	did not inhibit	–	did not inhibit	–
O=C(O)[C@H]1O[C@@H](OC(=O)[C@H](c2ccccc2Cl)N2CCc3sccc3C2)[C@H](O)[C@@H](O)[C@@H]1O [Clopidogrel acyl glucuronide, clopidogrel acyl glucuronide]	–	inhibited	–	inhibited	–
COC(=O)[C@H](c1ccccc1Cl)N1CCc2sccc2C1 [Clopidogrel, Clopidogrel hydrogen sulfate]	3.95 µM	inhibited	–	inhibited	R (CER) (OATP1B1 [1]; clopidogrel oral dose 600 mg): 1.63; Iin,max (OATP1B1 [1]; clopidogrel oral dose 600 mg): 124.40 µmol/L; Cmax ([3]; clopidogrel oral dose 600 mg): 31.4 ng/mL; Odds ratio for cerivastatin-induced rhabdomyolysis ([6]; clopidogrel use in the absence of gemfibrozil use, 95% CI 12.5-182): 47.8; Odds ratio for cerivastatin-induced rhabdomyolysis ([6]; clopidogrel use in the presence of gemfibrozil use, 95% CI 6.1-143): 29.6; inhibition at 5 min, 100 µmol/l (OATP1B1 [4]; human, probe [3H]-cerivastatin, 5 nmol/l): 52.7%; IC50 at 5 min (OATP1B1 [5]; human, probe [3H]-estrone-3-sulfate, 20 nmol/l): > 100 µM
C[C@]12CC[C@@H]3c4ccc(OS(=O)(=O)O)cc4CC[C@H]3[C@@H]1CCC2=O [ES, [^3H]-Estrone-3-sulfate ammonium salt]	–	–	–	–	ES transport rate ([7]; 20 nmol/l [3H]-ES): 0.01±0.006 pmol/mg of protein/min; ES transport rate (OATP1B1 reference): 0.2±0.01 pmol/mg of protein/min; Decrease in ES transport vs reference (OATP1B1*15): 66%; ES uptake, fraction of reference (OATP1B1 T345M): 0.43±0.07 of reference
C[C@]1(O)CC[C@H]2[C@@H]3CCC4=CC(=O)CC[C@]4(C)[C@@]3(F)[C@@H](O)C[C@@]21C [Fluoxymesterone]	–	–	–	–	Inhibition of OATP1B1-mediated uptake of cerivastatin (in words) (OATP1B1 [4]; [10]): no inhibitory effects; Inhibition of OATP1B1-mediated uptake of ES (in words) (OATP1B1 [5]; [10]): no inhibitory effects
COc1ccc(Cl)cc1C(=O)NCCc1ccc(S(=O)(=O)NC(=O)NC2CCCCC2)cc1 [Glyburide, glyburide]	–	–	–	–	fu [2]: 0.002
N[C@@H](Cc1cc(I)c(Oc2cc(I)c(O)c(I)c2)c(I)c1)C(=O)O [Levothyroxine, levothyroxine]	0.88 µM	inhibited	2.04 µM	inhibited	R (ES) (OATP1B1 [1]; [11]): 1.00; fu [2]: 0.01; Cmax [3, 12]: 591 ng/mL
CC(C)(O)c1ccccc1CC[C@@H](SCC1(CC(=O)O)CC1)c1cccc(/C=C/c2ccc3ccc(Cl)cc3n2)c1 [Montelukast, montelukast sodium]	2.04 µM	inhibited	1.4 µM	inhibited	R (ES) (OATP1B1 [1]; [11]): 1.01; Cmax ([3]; in vivo, po, 75 mg): 542 ng/mL
CCc1ccc(CCOc2ccc(CC3SC(=O)NC3=O)cc2)nc1 (centres unmarked) [Pioglitazone, pioglitazone hydrochloride]	39.6 µM	inhibited	6.8 µM	inhibited	R (ES) (OATP1B1 [1]; [11]): 1.01; Cmax ([3]; in vivo, po, 75 mg): 1500 ng/mL
CO[C@H]1/C=C/O[C@@]2(C)Oc3c(C)c(O)c4c(O)c(c(/C=N/N5CCN(C)CC5)c(O)c4c3C2=O)NC(=O)/C(C)=C\C=C\[C@H](C)[C@H](O)[C@@H](C)[C@@H](O)[C@@H](C)[C@H](OC(C)=O)[C@@H]1C [Rifampin, rifampin]	5.65 µM	–	0.88 µM	–	R (ES) (OATP1B1 [1]; [11]): 8.56; Cmax [3, 12]: 10000 ng/mL
CS(=O)(=O)c1ccc(C2=C(c3ccccc3)C(=O)OC2)cc1 [Rofecoxib, rofecoxib]	1.17 µM	inhibited	5.65 µM	inhibited	R (ES) (OATP1B1 [1]; [11]): 1.15; Cmax [3, 12]: 320 ng/mL
CN(CCOc1ccc(CC2SC(=O)NC2=O)cc1)c1ccccn1 (centres unmarked) [Rosiglitazone, Rosiglitazone-potassium salt]	43.4 µM	–	4.27 µM	–	Cmax [3, 12]: 598 ng/mL
COCc1c(C(C)C)nc(C(C)C)c(/C=C/[C@@H](O)C[C@@H](O)CC(=O)O)c1-c1ccc(F)cc1 [cerivastatin, [^3H]-Cerivastatin sodium salt]	–	–	–	–	Cerivastatin uptake transport rate ([7]; 5 nmol/l [3H]-CER): 0.02±0.01 pmol/mg of protein/min; Cerivastatin uptake, % of reference (OATP1B1 FS (974insGT)): 3.4 % of reference; Reduction in cerivastatin uptake (SLCO1B1 521T>C): 40%
CCCCC1=NC2(CCCC2)C(=O)N1Cc1ccc(-c2ccccc2-c2nnn[nH]2)cc1 [irbesartan, Irbesartan]	–	did not inhibit	–	did not inhibit	–
Cc1c(OCC(F)(F)F)ccnc1C[S+]([O-])c1nc2ccccc2[nH]1 (centres unmarked) [lansoprazole]	–	did not inhibit	–	did not inhibit	–
